# Values quoted from earlier work as cited in patent US9334264B2, “NAMPT inhibitors” (AbbVie Inc., priority 2012, dated 2016).
# Experiments:
# [1] = test system: activated T cells; conditions: cited from earlier work
# [2] = test system: collagen-induced arthritis; conditions: cited from earlier work
# [3] = test system: experimental autoimmune encephalomyelitis (EAE); conditions: a model of T-cell mediated autoimmune disorders; cited from earlier work
smiles,measurement,setting,value
O=C(/C=C/c1cccnc1)NCCCCC1CCN(C(=O)c2ccccc2)CC1 [FK866],apoptosis of activated T cells,[1],induce apoptosis
same,proliferation of activated T cells,[1],selectively block proliferation
same,efficacy in animal models of arthritis,[2],efficacious
same,manifestations of experimental autoimmune encephalomyelitis,[3],ameliorated the manifestations
